{
  "source": "ChEMBL document CHEMBL1201862",
  "about": "“PubChem BioAssay data set” (2004)",
  "key": {"[1]": {"target": "Heat shock 70 kDa protein 1A (Homo sapiens, UniProt P0DMV8)", "experiment": "Hsp70 inhibitors, SAR follow-up, biochemical, fluorescence polarization (AID 1072)"}, "[2]": {"target": "Heat shock cognate 71 kDa protein (Homo sapiens, UniProt P11142)", "sequence (P11142 whole entry)": "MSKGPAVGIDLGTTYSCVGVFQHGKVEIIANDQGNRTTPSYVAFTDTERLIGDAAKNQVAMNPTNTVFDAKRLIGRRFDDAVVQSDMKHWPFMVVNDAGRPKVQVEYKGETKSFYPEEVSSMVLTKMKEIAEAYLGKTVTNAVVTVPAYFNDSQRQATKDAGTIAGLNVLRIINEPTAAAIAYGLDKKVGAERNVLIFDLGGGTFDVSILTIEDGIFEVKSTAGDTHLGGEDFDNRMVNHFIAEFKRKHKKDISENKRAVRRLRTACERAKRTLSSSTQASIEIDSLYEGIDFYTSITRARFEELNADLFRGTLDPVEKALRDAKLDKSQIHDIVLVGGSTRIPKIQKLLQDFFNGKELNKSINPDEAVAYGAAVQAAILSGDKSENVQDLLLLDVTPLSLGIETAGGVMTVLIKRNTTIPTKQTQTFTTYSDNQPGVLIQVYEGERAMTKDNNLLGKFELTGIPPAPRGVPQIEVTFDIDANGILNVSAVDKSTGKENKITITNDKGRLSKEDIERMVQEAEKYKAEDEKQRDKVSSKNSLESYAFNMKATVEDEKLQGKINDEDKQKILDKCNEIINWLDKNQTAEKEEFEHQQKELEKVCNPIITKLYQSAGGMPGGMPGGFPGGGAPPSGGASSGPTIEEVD", "experiment": "In Vitro Hsc70 Dose Response Fluorescence Polarization Assay. [Related pubchem assays: 1072 ]"}, "[3]": {"target": "Glyceraldehyde-3-phosphate dehydrogenase (Homo sapiens, UniProt P04406)", "sequence (P04406 whole entry)": "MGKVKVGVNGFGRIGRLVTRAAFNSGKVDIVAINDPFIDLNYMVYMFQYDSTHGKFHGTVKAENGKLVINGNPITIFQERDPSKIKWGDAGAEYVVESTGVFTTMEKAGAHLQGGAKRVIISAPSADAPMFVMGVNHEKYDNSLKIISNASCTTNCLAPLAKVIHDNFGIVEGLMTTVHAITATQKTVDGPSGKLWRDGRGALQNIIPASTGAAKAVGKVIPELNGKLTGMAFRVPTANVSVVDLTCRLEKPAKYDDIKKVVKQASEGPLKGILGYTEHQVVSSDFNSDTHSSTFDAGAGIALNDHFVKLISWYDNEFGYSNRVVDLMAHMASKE"}, "[4]": {"target": "Peroxisome proliferator-activated receptor gamma/Nuclear receptor corepressor 2 (Homo sapiens, UniProt P37231+Q9Y618)", "sequence (P37231 whole entry)": "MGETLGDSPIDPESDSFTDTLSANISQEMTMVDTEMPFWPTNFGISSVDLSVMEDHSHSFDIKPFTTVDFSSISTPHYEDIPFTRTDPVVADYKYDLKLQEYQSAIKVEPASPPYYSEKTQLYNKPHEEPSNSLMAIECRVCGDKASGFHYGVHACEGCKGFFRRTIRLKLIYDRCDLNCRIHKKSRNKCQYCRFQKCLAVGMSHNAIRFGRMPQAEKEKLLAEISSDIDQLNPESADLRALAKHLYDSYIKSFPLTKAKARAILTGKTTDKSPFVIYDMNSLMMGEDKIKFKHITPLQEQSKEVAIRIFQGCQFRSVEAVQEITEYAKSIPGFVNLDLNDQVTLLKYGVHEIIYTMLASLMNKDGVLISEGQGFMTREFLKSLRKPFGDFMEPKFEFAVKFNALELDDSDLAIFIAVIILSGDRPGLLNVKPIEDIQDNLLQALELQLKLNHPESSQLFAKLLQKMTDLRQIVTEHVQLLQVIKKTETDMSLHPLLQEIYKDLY", "sequence (Q9Y618 whole entry)": "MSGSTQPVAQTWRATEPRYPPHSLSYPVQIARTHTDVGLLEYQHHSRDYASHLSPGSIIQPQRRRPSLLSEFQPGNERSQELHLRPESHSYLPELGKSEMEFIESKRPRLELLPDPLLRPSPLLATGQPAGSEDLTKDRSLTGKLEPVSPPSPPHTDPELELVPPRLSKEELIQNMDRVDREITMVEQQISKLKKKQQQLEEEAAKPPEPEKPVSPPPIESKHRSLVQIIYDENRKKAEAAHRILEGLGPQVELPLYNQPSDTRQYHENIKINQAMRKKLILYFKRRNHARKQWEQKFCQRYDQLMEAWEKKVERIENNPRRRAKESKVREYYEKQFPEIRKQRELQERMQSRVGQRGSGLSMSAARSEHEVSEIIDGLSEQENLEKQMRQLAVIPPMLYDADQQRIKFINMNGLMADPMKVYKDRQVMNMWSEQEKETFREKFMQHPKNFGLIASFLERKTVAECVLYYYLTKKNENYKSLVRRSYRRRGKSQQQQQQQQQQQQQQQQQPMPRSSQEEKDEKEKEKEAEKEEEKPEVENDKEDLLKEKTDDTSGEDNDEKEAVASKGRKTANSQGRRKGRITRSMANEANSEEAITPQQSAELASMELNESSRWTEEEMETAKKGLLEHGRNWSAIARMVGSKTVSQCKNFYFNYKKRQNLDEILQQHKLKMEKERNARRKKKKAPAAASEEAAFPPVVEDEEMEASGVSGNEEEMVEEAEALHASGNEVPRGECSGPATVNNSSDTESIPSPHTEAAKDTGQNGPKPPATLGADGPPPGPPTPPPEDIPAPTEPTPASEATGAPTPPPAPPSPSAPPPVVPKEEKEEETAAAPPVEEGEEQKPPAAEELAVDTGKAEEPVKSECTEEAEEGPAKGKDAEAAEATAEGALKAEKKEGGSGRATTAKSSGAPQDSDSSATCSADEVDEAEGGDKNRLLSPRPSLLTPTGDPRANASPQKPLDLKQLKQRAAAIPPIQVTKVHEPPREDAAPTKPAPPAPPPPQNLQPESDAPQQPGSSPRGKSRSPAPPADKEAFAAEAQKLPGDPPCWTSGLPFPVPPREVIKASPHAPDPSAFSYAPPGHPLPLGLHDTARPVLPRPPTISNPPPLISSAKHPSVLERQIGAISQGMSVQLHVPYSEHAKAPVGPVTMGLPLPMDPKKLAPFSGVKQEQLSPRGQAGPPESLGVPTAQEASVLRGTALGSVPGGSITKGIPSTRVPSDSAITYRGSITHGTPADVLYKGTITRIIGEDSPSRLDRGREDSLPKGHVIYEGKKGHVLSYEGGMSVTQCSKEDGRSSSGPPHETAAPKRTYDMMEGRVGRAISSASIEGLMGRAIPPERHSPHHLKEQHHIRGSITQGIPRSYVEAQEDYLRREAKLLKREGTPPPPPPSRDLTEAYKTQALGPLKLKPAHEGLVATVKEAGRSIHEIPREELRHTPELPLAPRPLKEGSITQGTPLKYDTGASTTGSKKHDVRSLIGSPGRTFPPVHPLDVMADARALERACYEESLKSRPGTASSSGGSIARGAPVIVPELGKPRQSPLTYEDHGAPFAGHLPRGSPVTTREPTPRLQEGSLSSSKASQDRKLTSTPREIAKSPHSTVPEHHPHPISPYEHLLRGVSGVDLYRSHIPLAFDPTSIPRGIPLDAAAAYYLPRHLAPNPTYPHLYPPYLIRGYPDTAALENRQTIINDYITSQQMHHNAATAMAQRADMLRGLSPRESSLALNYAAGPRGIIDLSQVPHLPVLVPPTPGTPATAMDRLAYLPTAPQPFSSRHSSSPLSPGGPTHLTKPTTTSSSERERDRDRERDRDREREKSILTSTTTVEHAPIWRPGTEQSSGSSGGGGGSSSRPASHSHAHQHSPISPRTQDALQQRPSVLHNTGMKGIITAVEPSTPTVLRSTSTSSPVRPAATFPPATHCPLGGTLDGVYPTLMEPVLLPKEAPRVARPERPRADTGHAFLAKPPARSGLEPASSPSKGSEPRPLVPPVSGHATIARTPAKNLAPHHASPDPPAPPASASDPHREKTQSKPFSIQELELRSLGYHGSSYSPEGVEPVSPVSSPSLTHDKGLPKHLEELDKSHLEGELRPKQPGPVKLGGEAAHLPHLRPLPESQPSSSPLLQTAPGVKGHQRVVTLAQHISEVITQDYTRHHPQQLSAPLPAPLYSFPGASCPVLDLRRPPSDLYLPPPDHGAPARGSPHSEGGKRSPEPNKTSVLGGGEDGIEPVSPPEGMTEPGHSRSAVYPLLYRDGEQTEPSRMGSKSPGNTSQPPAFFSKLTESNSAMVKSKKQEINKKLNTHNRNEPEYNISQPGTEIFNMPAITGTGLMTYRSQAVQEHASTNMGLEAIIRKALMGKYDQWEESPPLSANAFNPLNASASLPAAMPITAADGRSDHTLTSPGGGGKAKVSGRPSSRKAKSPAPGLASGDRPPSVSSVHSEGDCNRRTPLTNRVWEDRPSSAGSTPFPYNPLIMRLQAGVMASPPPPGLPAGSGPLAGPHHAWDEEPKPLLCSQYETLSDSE", "type": "functional"}, "[5]": {"target": "Photoreceptor-specific nuclear receptor (Homo sapiens, UniProt Q9Y5X4)", "sequence (Q9Y5X4 whole entry)": "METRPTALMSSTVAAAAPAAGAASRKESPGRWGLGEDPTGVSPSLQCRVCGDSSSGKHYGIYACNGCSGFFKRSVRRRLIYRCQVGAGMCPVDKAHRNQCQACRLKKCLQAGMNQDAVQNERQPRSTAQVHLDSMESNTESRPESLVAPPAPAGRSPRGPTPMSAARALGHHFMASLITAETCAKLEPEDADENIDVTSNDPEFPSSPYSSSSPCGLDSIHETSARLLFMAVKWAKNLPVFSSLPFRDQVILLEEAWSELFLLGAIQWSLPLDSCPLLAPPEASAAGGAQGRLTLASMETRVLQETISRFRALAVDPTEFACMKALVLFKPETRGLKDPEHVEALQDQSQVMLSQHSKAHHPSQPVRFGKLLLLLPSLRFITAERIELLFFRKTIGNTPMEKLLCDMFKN", "type": "functional"}, "[6]": {"target": "T1, Replicative DNA helicase DnaB (Mycobacterium tuberculosis, UniProt P9WMR3)", "T1 sequence (P9WMR3 whole entry)": "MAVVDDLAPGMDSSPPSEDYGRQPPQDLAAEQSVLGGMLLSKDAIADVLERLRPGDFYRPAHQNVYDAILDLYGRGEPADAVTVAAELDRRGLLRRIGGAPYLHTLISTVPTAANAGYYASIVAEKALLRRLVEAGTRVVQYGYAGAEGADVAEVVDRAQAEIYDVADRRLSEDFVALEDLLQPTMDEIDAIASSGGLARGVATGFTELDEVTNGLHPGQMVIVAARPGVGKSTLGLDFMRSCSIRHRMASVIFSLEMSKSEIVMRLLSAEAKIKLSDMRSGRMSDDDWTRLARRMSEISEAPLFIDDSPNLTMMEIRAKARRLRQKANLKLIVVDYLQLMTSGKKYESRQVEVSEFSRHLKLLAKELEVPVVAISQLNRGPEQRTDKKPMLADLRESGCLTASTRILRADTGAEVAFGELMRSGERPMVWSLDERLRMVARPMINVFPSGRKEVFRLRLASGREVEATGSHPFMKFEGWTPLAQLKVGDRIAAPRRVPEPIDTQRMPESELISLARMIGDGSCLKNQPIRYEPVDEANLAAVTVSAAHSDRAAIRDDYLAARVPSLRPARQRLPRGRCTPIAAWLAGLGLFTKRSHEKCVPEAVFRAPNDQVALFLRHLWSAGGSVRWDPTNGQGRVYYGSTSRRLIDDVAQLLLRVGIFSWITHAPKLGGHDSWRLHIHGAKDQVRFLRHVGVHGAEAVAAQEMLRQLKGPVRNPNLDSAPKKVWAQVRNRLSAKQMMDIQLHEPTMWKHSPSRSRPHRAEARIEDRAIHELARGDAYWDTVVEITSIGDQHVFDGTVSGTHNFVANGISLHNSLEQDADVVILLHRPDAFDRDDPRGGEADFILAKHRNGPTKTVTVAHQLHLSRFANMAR", "experiment": "DnaB intein splicing inhibitors, dose response, biochemical, cell-free fluorescence (AID 449749)", "type": "functional"}, "[7]": {"experiment": "enhancers of respiration in Yfh1-depleted yeast, dose response, Friedreich's ataxia, plus single-dose screen (AID 1465);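 further: yeast depleted of Yfh1p frataxin homolog grown on glycerol needing respiration; WST-1 tetrazolium dye reduction as measure of cellular dehydrogenase metabolic activity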", "type": "functional"}, "Protein RecA": {"target": "T2, Protein RecA (Mycobacterium tuberculosis, UniProt P9WHJ3)", "T2 sequence (P9WHJ3 whole entry)": "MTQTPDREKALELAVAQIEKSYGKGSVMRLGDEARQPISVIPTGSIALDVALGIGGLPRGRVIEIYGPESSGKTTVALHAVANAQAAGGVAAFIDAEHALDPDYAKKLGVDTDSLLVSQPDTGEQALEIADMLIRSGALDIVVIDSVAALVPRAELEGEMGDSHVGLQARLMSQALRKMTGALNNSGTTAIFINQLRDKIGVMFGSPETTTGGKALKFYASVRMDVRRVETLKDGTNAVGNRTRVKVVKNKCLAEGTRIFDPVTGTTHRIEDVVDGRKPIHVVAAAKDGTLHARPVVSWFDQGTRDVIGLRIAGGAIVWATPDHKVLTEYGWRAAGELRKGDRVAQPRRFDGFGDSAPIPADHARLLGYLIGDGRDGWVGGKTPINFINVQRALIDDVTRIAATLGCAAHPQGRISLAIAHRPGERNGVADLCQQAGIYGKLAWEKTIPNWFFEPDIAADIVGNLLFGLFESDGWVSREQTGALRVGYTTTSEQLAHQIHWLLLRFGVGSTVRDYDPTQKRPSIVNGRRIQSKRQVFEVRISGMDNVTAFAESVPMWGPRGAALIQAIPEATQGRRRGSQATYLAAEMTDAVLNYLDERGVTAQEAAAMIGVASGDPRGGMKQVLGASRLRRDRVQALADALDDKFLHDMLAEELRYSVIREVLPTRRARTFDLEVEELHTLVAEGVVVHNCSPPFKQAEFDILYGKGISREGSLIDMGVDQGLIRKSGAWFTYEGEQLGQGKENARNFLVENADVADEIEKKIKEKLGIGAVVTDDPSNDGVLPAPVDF", "experiment": "Fluorescence Cell-Free Homogeneous Dose Retest to Identify Inhibitors of RecA-Intein Splicing Activity. [Related pubchem assays (depositor defined):AID2097, AID2223, AID489010, AID492950]", "type": "functional"}, "[8]": {"experiment": "HIV-1 Env-mediated cell fusion inhibitors, dose response, CCR5-tropic Env (AID 2279)", "type": "functional"}, "[9]": {"target": "T3, Induced myeloid leukemia cell differentiation protein Mcl-1 (Homo sapiens, UniProt Q07820)", "T3 sequence (Q07820 whole entry)": "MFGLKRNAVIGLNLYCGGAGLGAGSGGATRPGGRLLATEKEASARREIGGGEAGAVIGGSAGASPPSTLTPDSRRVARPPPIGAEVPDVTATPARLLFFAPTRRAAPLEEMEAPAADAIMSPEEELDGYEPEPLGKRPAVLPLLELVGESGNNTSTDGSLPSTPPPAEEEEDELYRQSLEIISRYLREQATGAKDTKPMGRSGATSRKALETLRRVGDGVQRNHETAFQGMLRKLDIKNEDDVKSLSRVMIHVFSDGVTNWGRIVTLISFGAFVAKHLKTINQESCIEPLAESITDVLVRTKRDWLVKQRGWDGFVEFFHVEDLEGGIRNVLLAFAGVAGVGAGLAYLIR", "type": "functional"}, "Bcl-2-like protein 1": {"target": "Bcl-2-like protein 1 (Homo sapiens, UniProt Q07817)", "sequence (Q07817 whole entry)": "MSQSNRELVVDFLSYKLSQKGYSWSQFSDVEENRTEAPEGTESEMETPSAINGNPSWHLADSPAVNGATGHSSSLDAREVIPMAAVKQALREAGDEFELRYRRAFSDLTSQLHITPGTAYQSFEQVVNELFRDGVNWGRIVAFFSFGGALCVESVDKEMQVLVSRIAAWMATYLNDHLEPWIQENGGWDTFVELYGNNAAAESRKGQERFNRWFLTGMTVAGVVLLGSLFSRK", "experiment": "BCL-XL inhibitors, dose response, selectivity assay for MCL1 inhibitor project, biochemical, fluorescence polarization, 1536-well (AID 2218)"}, "[10]": {"experiment": "A Cell Based Secondary Assay To Explore Cytotoxicity of Compounds that Sensitize Mycobacterium Tuberculosis to Beta-Lactam Antibiotics.", "type": "functional"}, "[11]": {"target": "T3, Induced myeloid leukemia cell differentiation protein Mcl-1", "experiment": "MCL1-BIM BH3 interaction inhibitors, dose response, biochemical, fluorescence polarization, BIM-BH3 peptide, 1536-well (AID 2217)"}, "[12]": {"target": "T4, Neuropeptide Y receptor type 2 (Homo sapiens, UniProt P49146)", "T4 sequence (P49146 whole entry)": "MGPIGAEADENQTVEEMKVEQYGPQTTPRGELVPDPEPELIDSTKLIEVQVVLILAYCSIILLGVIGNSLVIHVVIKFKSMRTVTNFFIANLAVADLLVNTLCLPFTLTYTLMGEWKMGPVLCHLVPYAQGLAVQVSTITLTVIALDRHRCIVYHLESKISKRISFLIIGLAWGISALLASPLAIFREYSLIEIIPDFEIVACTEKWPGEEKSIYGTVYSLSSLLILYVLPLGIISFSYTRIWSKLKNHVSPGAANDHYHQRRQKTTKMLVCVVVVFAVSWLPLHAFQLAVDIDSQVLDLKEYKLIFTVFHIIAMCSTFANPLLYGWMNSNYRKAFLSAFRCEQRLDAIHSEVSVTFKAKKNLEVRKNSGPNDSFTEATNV", "experiment": "Fluorescence-based cell-based high-throughput dose response assay for agonists of NPY-Y2. [Related pubchem assays: 1703 (Screening assay (CNGC inhibitors).), 1359 (Screening assay (NPY-Y2 potentiators or agonists).), 1304 (Screening assay (NPY-Y1 potentiators or agonists).), 1710 (Screening assay (NPY-Y2 agonists).), 1791 (Summary AID.)]", "type": "functional"}, "[13]": {"target": "T5, Neuropeptide Y receptor type 1 (Homo sapiens, UniProt P25929)", "T5 sequence (P25929 whole entry)": "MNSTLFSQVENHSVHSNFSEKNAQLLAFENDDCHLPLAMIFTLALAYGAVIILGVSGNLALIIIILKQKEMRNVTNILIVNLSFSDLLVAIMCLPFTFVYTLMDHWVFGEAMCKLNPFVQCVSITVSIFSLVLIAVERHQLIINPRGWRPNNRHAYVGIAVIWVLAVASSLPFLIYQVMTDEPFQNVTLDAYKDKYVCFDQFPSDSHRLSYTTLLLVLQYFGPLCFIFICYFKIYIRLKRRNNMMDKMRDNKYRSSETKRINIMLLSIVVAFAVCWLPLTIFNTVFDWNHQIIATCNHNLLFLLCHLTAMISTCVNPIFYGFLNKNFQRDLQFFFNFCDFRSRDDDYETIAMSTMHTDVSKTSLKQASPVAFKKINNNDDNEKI", "experiment": "Fluorescence-based counterscreen for agonists of NPY-Y2: cell-based high-throughput dose response assay for agonists of NPY-Y1.", "type": "functional"}, "HEK293": {"test_system": "HEK293", "experiment": "Fluorescence-based counterscreen for potentiators or agonists of NPY-Y2: cell-based high-throughput dose response assay to identify inhibitors of cyclic nucleotide gated ion channel (CNGC) activity. In this assay, the parental HEK293 cell line transfected with a cyclic-nucleotide gated ion channel (CNGC)-based cAMP sensor is used to measure inhibition of isoproterenol-induced CNGC activity by test compound.", "type": "functional", "settings": "Homo sapiens"}},
  "note": "Active and inactive are the calls of the source.",
  "data": [
    {"smiles": "Nc1ncnc2c1ncn2[C@@H]1O[C@H](COP(=O)(O)OP(=O)(O)OP(=O)(O)O)[C@@H](O)[C@H]1O", "note": "[ADENOSINE TRIPHOSPHATE]", "values": [
      {"measurement": "IC50", "setting": "[1]", "value": "3.37 µM (active)"},
      {"measurement": "IC50", "setting": "[2]", "value": "17.3 µM (active)"},
      {"measurement": "IC50", "setting": "[3]", "value": "> 100 µM (not active)"}
    ]},
    {"smiles": "Cc1cccc(NC(=O)CSc2ncnc3c2oc2ccccc23)c1", "values": [
      {"measurement": "IC50", "setting": "[4]", "value": "3.35 µM (active)"},
      {"measurement": "IC50", "setting": "[5]", "value": "> 39.8 µM (not active)"}
    ]},
    {"smiles": "O=C1C=Cc2ccccc2C1=O", "note": "[1,2-NAPHTHOQUINONE]", "values": [
      {"measurement": "AC50", "setting": "[6]", "value": "5.81 µM (active)"},
      {"measurement": "EC50", "setting": "[7]", "value": "> 100 µM (active)"},
      {"measurement": "EC50", "setting": "Protein RecA", "value": "9.13 µM (active)"}
    ]},
    {"smiles": "O=[N+]([O-])c1cc(Cl)cc(/C=N/NC(=S)Nc2cc(S(=O)(=O)N3CCOCC3)ccc2Cl)c1O", "values": [
      {"measurement": "IC50", "setting": "[8]", "value": "25.1 µM (active)"},
      {"measurement": "IC50", "setting": "[9]", "value": "2.19 µM (active)"},
      {"measurement": "IC50", "setting": "Bcl-2-like protein 1", "value": "> 109 µM (not active)"},
      {"measurement": "CC50", "setting": "[10]", "value": "25.7 µM (active)"},
      {"measurement": "IC50", "setting": "[11]", "value": "49.3 µM (not active)"}
    ]},
    {"smiles": "CCCOc1ccc(/C=N/Nc2ccc(C(=O)O)cc2)c(OCCC)c1", "values": [
      {"measurement": "EC50", "setting": "[12]", "value": "26.3 µM (not active)"},
      {"measurement": "EC50", "setting": "[13]", "value": "16.5 µM (not active)"},
      {"measurement": "EC50", "setting": "HEK293", "value": "11.4 µM (not active)"}
    ]}
  ]
}
